Source: US7223771B2, “Tricyclic imidazopyridines” (Altana Pharma AG, priority 2001, dated 2007)

System: pentagastrin-stimulated acid secretion of the perfused rat stomach
Conditions: anesthetized CD rat, dose 3.0 μmol/kg i.d. (intraduodenal)
Description: Testing of the Secretion-Inhibiting Action on the Perfused Rat Stomach
The abdomen of anesthetized rats (CD rat, female, 200–250 g; 1.5 g/kg i.m. urethane) was opened after tracheotomy by a median upper abdominal incision and a PVC catheter was fixed transorally in the esophagus and another via the pylorus such that the ends of the tubes just projected into the gastric lumen. The catheter leading from the pylorus led outward into the right abdominal wall through a side opening.
After thorough rinsing (about 50–100 ml), warm (37° C.) physiological NaCl solution was continuously passed through the stomach (0.5 ml/min, pH 6.8–6.9; Braun-Unita I). The pH (pH meter 632, glass electrode EA 147; φ=5 mm, Metrohm) and, by titration with a freshly prepared 0.01N NaOH solution to pH 7 (Dosimat 665 Metrohm), the secreted HCl were determined in the effluent in each case collected at an interval of 15 minutes.
The gastric secretion was stimulated by continuous infusion of 1 μg/kg (=1.65 ml/h) of i.v. pentagastrin (left femoral vein) about 30 min after the end of the operation (i.e. after determination of 2 preliminary fractions). The substances to be tested were administered intraduodenally in a 2.5 ml/kg liquid volume 60 min after the start of the continuous pentagastrin infusion.
The body temperature of the animals was kept at a constant 37.8–38° C. by infrared irradiation and heat pads (automatic, stepless control by means of a rectal temperature sensor).

Row | SMILES | Inhibition of acid secretion
1 | CCOC(=O)c1cn2c(C)c(C)nc2c2c1CCC(c1ccccc1)O2 (stereo not drawn) [Example 2, Ethyl 2,3-dimethyl-9-phenyl-7H-8,9-dihydro-pyrano[2,3-c]-imidazo[1,2-a]pyridine-6-carboxylate] | 100%
2 | Cc1nc2c3c(c(C(=O)N(C)C)cn2c1C)CCC(c1ccccc1)O3 (stereo not drawn) [Example 3, 2,3-Dimethyl-9-phenyl-7H-8,9-dihydro-pyrano[2,3-c]-imidazo[1,2-a]pyridine-6-(N,N-dimethyl)carbamide] | 100%
3 | CCN(CC)C(=O)c1cn2c(C)c(C)nc2c2c1CCC(c1ccccc1)O2 (stereo not drawn) [Example 1, 2,3-Dimethyl-9-phenyl-7H-8,9-dihydro-pyrano-[2,3-c]-N-(diethyl)imidazo[1,2-a]pyridine-6-carboxamide] | 100%
